The experiment has as its target T1, purified catalytic domain of recombinant human TACE (rhTACEc) (Homo sapiens, UniProt P78536, N452Q/S266A).
T1 construct: rhTACEc, Residue 215 to 477 with two mutation (S266A and N452Q) and a 6× His tail; 6xHis (C); made in house; host or cells: baculovirus/Hi5 insect cells
Put plainly: TACE kinetic assay, cleavage of internally quenched peptide substrate SPDL-3. Format: biochemical. The method, then: TACE activity is determined by a kinetic assay measuring the rate of increase in fluorescent intensity generated by TACE catalyzed cleavage of an internally quenched peptide substrate (SPDL-3). The purified catalytic domain of recombinant human TACE (rhTACEc, Residue 215 to 477 with two mutation (S266A and N452Q) and a 6× His tail) is used in the assay. It is purified from the baculovirus/Hi5 cells expression system using affinity chromatography. The substrate SPDL-3 is an internally quenched peptide (MCA-Pro-Leu-Ala-Gln-Ala-Val-Arg-Ser-Ser-Ser-Dpa-Arg-NH2), with its sequence derived from the pro-TNFα cleavage site. MCA is (7-Methoxycoumarin-4-yl)acetyl. Dpa is N-3-(2,4-Dinitrophenyl)-L-2,3-diaminopropionyl.
A 50 μl assay mixture contains 20 mM HEPES, pH 7.3, 5 mM CaCl2, 100 μM ZnCl2, 2% DMSO, 0.04% Methylcellulose, 30 μM SPDL-3, 70 pM rhTACEc and a test compound. RhTACEc is pre-incubated with the testing compound for 90 min. at 25° C. Reaction is started by addition of the substrate. The fluorescent intensity (excitation at 320 nm, emission at 405 nm) was measured every 45 seconds for 30 min. using a fluorospectrometer (GEMINI XS, Molecular Devices). Rate of enzymatic reaction is shown as Units per second. Effect of a test compound is shown as % of TACE activity in the absence of the compound.

Where [1] appears, read: Specific TACE inhibitory activity (Ki values).
[2] abbreviates: TACE inhibitory activity, class letters.

T1 sequence (P78536 215-477 S266A/N452Q): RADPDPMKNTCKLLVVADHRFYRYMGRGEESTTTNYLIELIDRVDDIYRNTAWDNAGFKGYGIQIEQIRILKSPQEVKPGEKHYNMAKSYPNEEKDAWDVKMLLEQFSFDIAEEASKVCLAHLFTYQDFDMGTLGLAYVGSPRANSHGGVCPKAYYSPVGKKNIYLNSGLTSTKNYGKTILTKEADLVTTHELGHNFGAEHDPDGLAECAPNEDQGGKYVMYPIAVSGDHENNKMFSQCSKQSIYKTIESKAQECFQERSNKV

Regarding `O=C1N[C@H](C(=O)NO)[C@@H]1Cc1ccc(OCc2cc(-c3ccccc3)nc3ccccc23)cc1` [Compound B8], the Ki – broadly, a measure of affinity in units of concentration, obtained from inhibition or displacement – runs as follows: under setting [1], 11.7 nM; under setting [2], under 20 nM. The like results for `CCOC(=O)[C@@]1(Cc2ccc(OCc3cc(-c4ccccc4)nc4ccccc34)cc2)CNC[C@@H]1C(=O)NO` [Compound A12] were, in that order, 59 nM and 20 to 100 nM.

Take `COC(=O)C(Oc1ccc(C[C@H]2C(=O)N[C@@H]2C(=O)NO)cc1)c1cc(-c2ccccc2)nc2ccccc12` (stereo partly shown) [Compound E3]: under setting [2], the Ki fell in the range of 100 to 1000 nM. For `O=C(NO)[C@H]1NC(=O)[C@@H]1Cc1ccc(OCc2cc(-c3ccccc3)nc3ccccc23)cc1` [Compound C5], the Ki under setting [1] came out at 55 nM and the Ki under setting [2] was 20 to 100 nM.

The values are drawn from patent publication US7879997B2, “Compounds for the treatment of inflammatory disorders” (Schering Corporation, priority 2005, dated 2011).
